From patent publication US7700559B2, “Gonadotropin releasing hormone analogues conjugates with steroid hormones” (Medical Research Council, priority 2003, dated 2010)

Legend:
[1] = target: T1, cortisol binding globulin (CBG) (Homo sapiens, UniProt P08185); assay: Plasma protein binding assay, competition with [3H]cortisol in human pregnant serum; conditions: data not shown, read-out: IC50, prevention of [3H]cortisol binding
T1 construct: from tissue; host or cells: human pregnant serum (charcoal-stripped, diluted)
T1 sequence (P08185 23-405): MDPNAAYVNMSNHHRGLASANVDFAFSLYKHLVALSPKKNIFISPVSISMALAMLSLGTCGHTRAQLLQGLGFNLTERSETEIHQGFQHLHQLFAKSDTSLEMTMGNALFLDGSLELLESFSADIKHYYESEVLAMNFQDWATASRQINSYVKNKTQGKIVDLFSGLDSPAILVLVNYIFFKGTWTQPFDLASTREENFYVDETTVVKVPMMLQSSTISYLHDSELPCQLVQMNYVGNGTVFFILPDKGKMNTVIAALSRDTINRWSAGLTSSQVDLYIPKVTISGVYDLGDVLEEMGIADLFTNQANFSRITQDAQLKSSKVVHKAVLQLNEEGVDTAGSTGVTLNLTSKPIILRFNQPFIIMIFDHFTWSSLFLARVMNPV
Description: (§1) Plasma Protein Binding Assay
(§2) Plasma protein binding was determined by the competitive binding of steroid conjugates, in the presence of [1,2,6,7-^3H]progesterone or [^3H]cortisol, to pregnant guinea pig plasma or human pregnant serum respectively. 20 μl serum was diluted with 2 ml dextran-coated charcoal solution (0.25 g dextran T-70, 2.5 g charcoal decolorizing powder, activated acid washed [Merck Ltd., Lutterworth, Leicestershire] in 500 ml PBS) and incubated at room temperature. After 30 mins the suspension was centrifuged at 3000×g for 10 minutes, the supernatant was removed and the pellet was discarded. 100 μl of diluted serum was aliquoted into centrifuge tubes, followed by 1 pmol[^3H]steroid/100 μl PBS. 100 μl PBS (total binding) or 200 pmol/100 μl unlabelled competing ligand ([…]) was added to diluted serum in duplicate. Tubes were vortexed and incubated at room temperature for 1 hour, then for an additional 15 minutes on ice. A further 750 μl dextran-coated charcoal suspension was added and incubated for 10 minutes on ice, followed by centrifugation at 4° C. for 5 minutes. The supernatant fluid was counted.

[2] = In vivo male rabbit study, disappearance of iodinated analogue from whole blood; conditions: iodinated compound i.v. into ear vein, male rabbit, whole blood
Description: In Vivo Studies in the Male Rabbit
To determine biological half-life of GnRH agonist-progesterone conjugates, 0.5 ml saline containing approximately 10,000,000 cpm of iodinated [D-Ala^6]GnRH or [D-Lys^6]GnRH-progesterone conjugate was injected as an i.v. bolus into the ear vein of a male rabbit. Rabbits were sedated with 0.4 ml Aceprom 10 (Milborrow Animal Health, Republic of South Africa) injected intramuscularly 3-4 minutes before start of experiment. A repeat injection was carried out after 2 hours. 1 ml blood samples were collected in heparinized tubes from an indwelling cannula placed in a vein of the contralateral ear. Whole blood was counted directly to determine disappearance from circulation. All experiments were carried out in accordance with Republic of South Africa regulations.

rat type I GnRHR = target: T2, rat type I GnRHR (Rattus norvegicus, UniProt P30969); assay: Total inositol phosphate production in HEK293 cells stably expressing rat type I GnRHR; assay type: cell-based; conditions: n=2, read-out: EC50, stimulation of inositol phosphate production
T2 construct: expressed in transfected cells
T2 sequence (P30969 1-327): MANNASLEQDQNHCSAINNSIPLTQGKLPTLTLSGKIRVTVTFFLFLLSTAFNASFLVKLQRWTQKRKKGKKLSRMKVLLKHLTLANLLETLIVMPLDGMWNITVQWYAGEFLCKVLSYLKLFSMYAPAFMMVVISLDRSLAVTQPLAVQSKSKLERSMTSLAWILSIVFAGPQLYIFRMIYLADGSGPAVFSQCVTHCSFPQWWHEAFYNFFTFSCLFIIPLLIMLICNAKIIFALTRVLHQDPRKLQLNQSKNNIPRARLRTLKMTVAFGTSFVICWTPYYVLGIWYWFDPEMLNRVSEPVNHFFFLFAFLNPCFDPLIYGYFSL
Description: A HEK293 stable cell line expressing the rat type I GnRHR developed in our laboratory was used for the inositol phosphate production assays. This cell line was maintained in DMEM containing 10% fetal calf serum, glutamine and penicillin/streptomycin with the addition of G418 at 500 μg/ml throughout culture. Where required, plates were coated with Poly-L-Lysine to enhance adherence to plasticware during assay.
Measurement of Total Inositol Phosphate Production
Rat type I GnRH receptive expressing HEK293 cells were plated out onto 12 well plates and incubated at 37° C., 5% CO2 for 24 hours, then incubated in special DMEM containing 1% dialysed FCS (with glutamine and penicillin/streptomycin) and 1 μl/well of myo-[2-^3H]inositol for a further 48 hours. After aspiration of media and washing with incubation buffer, a further 500 μl buffer containing 10 mM LiCl was added to the plates and then incubated at 37° C. for 30 mins. 1 μM agonist was added to each well to a final concentration of 0.1 μM and the plates were incubated under the same conditions for a further 1 hour. The reaction was terminated with 500 μl 10 mM formic acid, incubated at 4° C. for 30 mins. […] After addition of formic acid, ammonium formate (1 ml, 0.1M, 1M) and vortexing, 800 μl of the supernatant was counted with scintillation fluid.

[3] = target: T3, type I human GnRH receptor (Homo sapiens, UniProt P30968); assay: Membrane binding assay of GnRH agonist-progesterone conjugate, COS-1 cells transfected with hGnRH-R, 125I[His5,D-Tyr6]GnRH; conditions: n=1, data not shown, read-out: ED50, binding to type I human GnRH receptor
T3 construct: expressed in transfected cells; host or cells: COS-1 cells (membranes)
T3 sequence (P30968 1-328): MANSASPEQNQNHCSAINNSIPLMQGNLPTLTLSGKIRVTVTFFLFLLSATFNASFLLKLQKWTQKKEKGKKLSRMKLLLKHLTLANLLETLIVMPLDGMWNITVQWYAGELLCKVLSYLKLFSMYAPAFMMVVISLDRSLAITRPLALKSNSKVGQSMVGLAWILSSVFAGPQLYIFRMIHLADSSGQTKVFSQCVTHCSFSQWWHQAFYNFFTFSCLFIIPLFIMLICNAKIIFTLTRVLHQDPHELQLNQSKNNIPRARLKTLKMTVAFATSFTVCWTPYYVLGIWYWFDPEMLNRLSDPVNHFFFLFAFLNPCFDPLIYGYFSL
Description: Membrane binding assay of GnRH agonist-progesterone conjugates was carried out on COS-1 cells transfected with hGnRH-R. COS-1 cells in 100 mm dishes were washed twice in HEPES modified DMEM and transfected with 15 μg DNA in filter-sterilised DEAE dextran with HEPES buffered saline, penicillin/streptomycin and DMEM. After five hours incubation at 37° C., the media was removed and replaced with DMEM containing penicillin/streptomycin, 2% FCS and 2% chloroquine 10 mM and plates were incubated for a further one hour. The media was aspirated, cells were washed and normal media was added until assay 24 hours later.
Membrane Binding Assay of GnRH agonist-Progesterone Conjugate:
Transfected COS-1 cells were washed in PBS, removed from plates and centrifuged at 1500 rpm for five mins to pellet cells. The PBS was aspirated and the cells were resuspended in homogenization buffer (20 mM Tris, 2 mM MgCl2, pH 7.2), vortexed and left on ice for 10 minutes. The cell suspension was transferred to a 7 ml homogeniser (Jencons (Scientific) Ltd., Leighton Buzzard, Buckinghamshire) and plunged 15 times with a loose plunger and 15 times with a tight plunger. The homogenized cells were then centrifuged at 4° C. for 10 mins at top speed and the supernatant was removed with a vacuum pump. […] Filters were then counted immediately on a gamma counter.

[4] = target: progesterone binding globulin (PBG); assay: Plasma protein binding assay, competition with [3H]progesterone in pregnant guinea pig plasma; conditions: read-out: IC50, inhibition of [3H]progesterone binding to PBG
Description: as §1, §2

SMILES: CC(=O)[C@H]1CC[C@H]2[C@@H]3CCC4=CC(=O)CC[C@]4(C)[C@H]3[C@H](OC(=O)CCC(=O)NCCCC[C@@H](NC(=O)[C@H](Cc3ccc(O)cc3)NC(=O)[C@H](CO)NC(=O)[C@H](Cc3c[nH]c4ccccc34)NC(=O)[C@H](Cc3c[nH]cn3)NC(=O)[C@@H]3CCC(=O)N3)C(=O)N[C@@H](CC(C)C)C(=O)N[C@@H](CCCNC(=N)N)C(=O)N3CCC[C@H]3C(=O)NCC(N)=O)C[C@]12C [GnRH agonist-progesterone conjugate, [DLys^6]GnRH conjugated to 11α-hydroxyprogesterone 11-succinate at the ε amine group of the D-Lys at position 6]
- IC50 [1]: 1200 nM
- second phase half-life (metabolism and renal clearance) [2]: 53 ± 13 min
- EC50 (rat type I GnRHR): 0.52 nM
- EC50 [3]: 0.29 nM
- IC50 [4]: 0.29 nM
